The record followed here is patent US20260283988A1, “FERROPTOSIS INHIBITORS” (priority 2023, published 2026).

Where two headings read alike, the source gives them in different places.

Series [1] in a line: Cell-free BODIPY assay with AAPH. The following applies: 25 μM compound; 7.5 mM AAPH. The class given is biochemical. The method, then:
As a control, the same amount of DMSO was diluted in 150 μl PBS. […] For the non-oxidized control, one sample was prepared as DMSO only without AAPH. All three solutions were mixed equally and incubated for 30 min at room temperature in the dark.

Series [2] relates to HT-1080-derived spheroids. Briefly: 3D spheroid formation and imaging (roundness). The format is cell-based, Human. The following applies: 200 nM RSL3; 2 μM Fer-1; 6 μM Seratrodast, 48 h. Here is the method:
Over a period of 48 h spheroids were formed and subsequently treated with RSL3, and Ferrostatin-1 or Seratrodast. […] Images were acquired using an Operetta high-content imaging system (PerkinElmer) and analyses were conducted with the Columbus software (PerkinElmer). For analysis, spheroids were detected as “Image region” and morphology properties were calculated (roundness).

Series [3] in a line: Cytotoxicity, cell viability assay. The format is cell-based, Human. As to conditions: human, ht-1080 cells, * = signal quenching at higher concentration, toxicity might be less than indicated; read-out: cytotoxic IC50. The method, then: (§1) After 24 h of growth, cells were treated with 10 or 12-point serial dilutions of compounds in indicated concentrations for 18 h.
In series [4] the test system is Mouse Embryonic Fibroblasts (MEF). Briefly: Necroptosis assay, TNFα + zVAD-FMK + LCL161, cell viability. The class given is cell-based. Here is the method:
For detecting necroptosis, MEF were treated with TNFα, zVAD-FMK and LCL161 before addition of Seratrodast or Necrostatin-1. Cell viability was measured after 18 hours by adding CellTiter-Glo® 2.0 Reagent (Promega) according to the manufacturer's instruction and luminescence was read out.

Series [5] relates to HT-1080. Briefly: Ferroptosis inhibition, cell viability assay (CellTiter-Glo). The format is cell-based, Human. As to conditions: for IC50: read-out: IC50 (Ferroptosis inhibition); for cellular efficacy/toxicity window: cytotoxic IC50 versus ferroptosis inhibition IC50, 1080 min. Here is the method:
Cell lines: Human fibrosarcoma cell line HT-1080 and immortalized Mouse Embryonic Fibroblasts (MEF). MEFs were a gift from Daniel Krappmann, HT-1080 were purchased from ATCC and both cell lines were grown in Dulbecco's Modified Eagle's medium (Thermo Fisher Scientific, 41966-029) supplemented with 10% fetal bovine serum (FBS, Thermo Fisher Scientific), 1% Penicillin-Streptomycin (Thermo Fisher Scientific) and 1% nonessential amino acids (MEM NEAA, Thermo Fisher Scientific). Cells were grown at 37° C. and 5% CO2.
HT-1080 were seeded into 384-well plates (CulturPlates, PerkinElmer) with a density of 750 cells per well. After 24 h of growth, cells were treated with 10 or 12-point serial dilutions of compounds in indicated concentrations for 18 h. Viability was detected by using CellTiter-Glo® 2.0 Regent (Promega) according to the manufacturer's instruction and luminescence was read out in an EnVison 2104 Multilabel plate reader (PerkinElmer).
In general terms: ATP-based viability assays read luminescence as a measure of living cells.

Series [6] relates to HT-1080. Nature of the series: Apoptosis assay, Staurosporine-induced Caspase 3/7 activity (Caspase-Glo 3/7). The format is cell-based, Human. Here is the method:
For detecting apoptosis, HT-1080 were treated with Staurosporine before addition of Seratrodast or zVAD-FMK. Caspase 3/7 activity was measured 18 hours later via Caspase-Glo® 3/7 Assay Reagent (Promega) according to the manufacturer's instruction. Cells were incubated for 45 min at room temperature and luminescence was measured.

Series [7] relates to HT-1080. Briefly: TBARS assay (MDA levels). The format is cell-based, Human. The following applies: 250 nM RSL3; 6 μM Seratrodast, 2.5 h. Here is the method: 2 million HT-1080 cells were seeded into 150 mm dishes and grown for 48 hours. Ferroptosis was induced with RSL3 for 2.5 hours and cells were co-treated with Ferrostatin-1 or Seratrodast. Cells were detached by 0.05% Trypsin-EDTA (Thermo Fisher Scientific) and cell number was adjusted to the sample with the lowest cell count. For measuring MDA levels, TBARS (TCA Method) Assay Kit (Cayman Chemical, 700870) was used according to manufacturer's instruction. Fluorescence was detected at 530 nm/550 nm in an EnVision 2104 Multilabel plate reader (PerkinElmer).

In series [8] the test system is HT-1080. Nature of the series: Flow cytometry, BODIPY 581/591 C11 lipid peroxidation sensor. The class given is cell-based, Human. As to conditions: 200 nM RSL3; 6 μM Seratrodast, 2.5 h. The method, then:
(§2) HT1080 cells were grown in 6-well plates (200,000 cells per well) and incubated for 24 h. For staining with BODIPY 581/591 C11 (Thermo Fisher Scientific), cells were treated with RSL3, and Ferrostatin-1 or Seratrodast for 2 h, then BODIPY was added into the wells to a final concentration of 2 μM. After 30 min incubation, cells were detached using Trypsin and washed two times with PBS. Between the wash steps, cells were centrifuged at 500×g for 5 minutes. After the final washing step, cell pellets were resuspended in 300 μl PBS and 10,000 events per condition were analyzed in the BL-1 channel of an Attune acoustic flow cytometer (Applied Biosystems). For detection of 4-Hydroxynonenal (4-HNE), HT-1080 were induced with RSL3, and co-treated with Ferrostatin-1 or Seratrodast for 2 h before they were detached using Trypsin. Cell pellets were incubated in 10% normal goat serum (Thermo Fisher Scientific) for 30 min on ice. Subsequently, cells were incubated with anti-4-HNE antibody (1:50 dilution in 1% BSA in PBS, ab46545, Abcam) for 1 h on ice. […] For flow cytometry, cells were collected in 300 μl PBS and 10,000 events per condition were analyzed in an Attune acoustic flow cytometer (Applied Biosystems), using the BL-1 channel. FlowJo™ v10.8.1 (BD Life Sciences) was used for creating histograms and analyzing fluorescence intensity.
Background: A flow cytometer gives signals particle by particle.

Series [9] relates to HT-1080. Nature of the series: Flow cytometry, 4-Hydroxynonenal (4-HNE) immunostaining. The format is cell-based, Human. The following applies: 300 nM RSL3; 6 μM Seratrodast, 2 h. Here is the method: as §2
Series [10] concerns HT-1080. Briefly: Cytotoxicity, cell viability assay. The class given is cell-based, Human. As to conditions: * = signal quenching at higher concentration, toxicity might be less than indicated; 1080 min; read-out: cytotoxic IC50. Here is the method: as §1
[11] abbreviates: Homo sapiens, HT-1080, based on the assays of example 1.
The mark [12] stands for this setting: based on the assays of example 1.

Consider `CCOC(=O)c1ccc(NC2CCCCC2)c(N)c1` [Ferrostatin-1], for which the “oxidative fluorescence induced by AAPH (cell-free C11-BODIPY)” value in [1] is recorded as “significantly reduced oxidative fluorescence”. The “inhibition of ferroptosis in 3D spheroid model (spheroid roundness)” value in [2] is given as “fully inhibited ferroptosis-based spheroid destruction”.
Regarding `CC(=O)Nc1ccc(NC2=C(C)C(=O)c3ccccc3C2=O)cc1` [iQFerr39, N-{4-[(3-methyl-1,4-dioxo-1,4-dihydronaphthalen-2-yl)amino]phenyl} acetamide], the CC50 at 18 h in series [3] was 43500 nM. Besides, the Necroptosis inhibition entry in [4] is recorded as “no”. In series [5] (setting [11]), the IC50 came to 17 nM. Also, the cellular efficacy/toxicity window in series [5] was 2561-fold. The Apoptosis inhibition entry in series [6] is “no”.
As to `O=C1C=C(C(c2ccccc2)c2ccccc2)C(=O)c2ccccc21` [iQFerr29, 2-diphenylmethyl-1,4-naphtoquinone], in [3], the CC50 at 18 h was determined as 4990 nM. In series [4], the Necroptosis inhibition entry is recorded as “no”. The IC50 in series [5] (setting [11]) amounted to 3.91 nM. The cellular efficacy/toxicity window in series [5] was 1277-fold.
For the compound `Cc1ccc(N(CCCCCC(N)=O)C2=CC(=O)c3ccccc3C2=O)c(C)c1` [iQFerr43, 6-[(2,4-dimethylphenyl)(1,4-dioxo-1,4-dihydronaphthalen-2-yl)amino]hexanamide], in series [3], the CC50 at 18 h amounted to 75400 nM. Besides, in series [4], the Necroptosis inhibition result was “no”. Besides, the IC50 in [5] (setting [11]) turned out to be 116 nM. Moreover, the cellular efficacy/toxicity window in series [5] is reported as 653-fold. In series [6], the Apoptosis inhibition entry is “no”.
Turning to `CC1=C(Nc2ccc(C)cc2C)C(=O)c2ccccc2C1=O` [iQFerr41, 2-[(2,4-dimethylphenyl)amino]-3-methyl-1,4-dihydronaphthalene-1,4-dione], in series [3], the CC50 at 18 h worked out at 13400 nM. Moreover, in series [4], the Necroptosis inhibition entry is reported as “no”. For the same compound, the IC50 in series [5] (setting [11]) was determined as 2.91 nM. For the same compound, the cellular efficacy/toxicity window in series [5] is 4601-fold. Further, the Apoptosis inhibition entry in series [6] is reported as “no”.
As for `CC1=C(C)C(=O)C(C(CCCCCC(=O)O)c2ccccc2)=C(C)C1=O` (stereo not drawn) [iQFerr01, Seratrodast, reference compound], in series [1], the “oxidative fluorescence induced by AAPH (cell-free C11-BODIPY)” value is recorded as “significantly reduced oxidative fluorescence”. Besides, the “RSL3-induced malondialdehyde (MDA) levels” value in series [7] is “eliminated levels of malondialdehyde”. Besides, the CC50 at 18 h in [3] turned out to be 57900 nM. The Necroptosis inhibition entry in series [4] was “no”. Further, the inhibition of necroptosis entry in [4] (6 μM, 20 ng/ml TNFα + 10 μM Z-VAD-FMK + 10 μM LCL161 for 18 h) is “does not inhibit necroptosis”. Besides, in series [8], the “RSL3-mediated peroxidation of the C11-BODIPY sensor” value is “largely reduced”. The “suppression of ferroptosis (cell viability)” value in [5] (100 nM RSL3 or 1.5 μM IKE for 18 h) is on record as “dose-dependently suppresses ferroptosis”. Further, the “inhibition of ferroptosis induced by RSL3, IKE, FINO2 and FIN56” value in [5] (6 μM Seratrodast, 2 μM Fer-1, 18 h) is reported as “able to suppress ferroptosis induced by all four FINs”. Besides, the IC50 in series [5] (setting [11]) is 290 nM. Besides, the cellular efficacy/toxicity window in series [5] is recorded as 200-fold. For the same compound, the Apoptosis inhibition result in series [6] is “no”. The inhibition of apoptosis result in series [6] (6 μM, 1 μM Staurosporine, 18 h) is “does not inhibit apoptosis”. In addition, the “RSL3-induced 4-hydroxynonenal (4-HNE) levels” value in [9] is reported as “reduced”. Besides, the “inhibition of ferroptosis in 3D spheroid model (spheroid roundness)” value in series [2] is given as “fully inhibited ferroptosis-based spheroid destruction”.
Take `Cc1ccc(NC2=C(Cl)C(=O)c3ccccc3C2=O)c(C)c1` [iQFerr14, 2-chloro-3-(2,4-dimethylanilino)-1,4-naphtoquinone]: the CC50 in series [10] was 1000 nM. For the same compound, the IC50 in series [5] (setting [12]) is 0.034 nM. The cellular efficacy/toxicity window in series [5] was 5000-fold.
`Cc1ccc(NC2=C(C(F)(F)F)C(=O)c3ccccc3C2=O)c(C)c1` [iQFerr47, 2-[(2,4-dimethylphenyl)amino]-3-(trifluoromethyl)-1,4-dihydronaphthalene-1,4-dione]: the CC50 at 18 h in series [3] came to 14700 nM. In series [4], the Necroptosis inhibition result is “no”. For the same compound, the IC50 in series [5] (setting [11]) was found to be 10.1 nM. In series [5], the cellular efficacy/toxicity window is 1458-fold. Further, the Apoptosis inhibition entry in series [6] is on record as “no”.
As to `CC1=C(Nc2cc(C)cc(C)c2)C(=O)c2ccccc2C1=O` [iQFerr46, 2-[(3,5-dimethylphenyl)amino]-3-methyl-1,4-dihydronaphthalene-1,4-dione], in [3], the CC50 at 18 h was determined as 77600 nM. In series [4], the Necroptosis inhibition entry was “no”. Also, in series [5] (setting [11]), the IC50 amounted to 2.11 nM. Besides, the cellular efficacy/toxicity window in [5] is listed as 36758-fold. In series [6], the Apoptosis inhibition entry is recorded as “no”.
For `Cc1ccc(NC2=C(Cl)C(=O)c3ccccc3C2=O)c(C)c1` [iQFerr35, 2-chloro-3-[(2,4-dimethylphenyl)amino]-1,4-dihydronaphthalene-1,4-dione], the CC50 in [10] turned out to be 5570 nM. Also, in series [5] (setting [12]), the IC50 is 0.692 nM. Further, the cellular efficacy/toxicity window in series [5] is 8051-fold.
For the compound `CC(=O)c1ccc(NC2=C(Cl)C(=O)c3ccccc3C2=O)cc1` [iQFerr02, NQ301], the CC50 at 18 h in [3] was found to be 759 nM. Moreover, in series [4], the Necroptosis inhibition entry was “no”. In addition, the IC50 in series [5] (setting [11]) amounted to 27 nM. In series [5], the cellular efficacy/toxicity window was 28-fold.
Consider `CC(=O)Nc1ccc(NC2=C(C(F)(F)F)C(=O)c3ccccc3C2=O)cc1` [iQFerr44, N-(4-{[1,4-dioxo-3-(trifluoromethyl)-1,4-dihydronaphthalen-2-yl]amino}phenyl) acetamide], for which the CC50 at 18 h in [3] is 58800 nM. Besides, the Necroptosis inhibition entry in series [4] is on record as “no”. The 50% inhibitory concentration (IC50) in [5] (setting [11]) was 30.9 nM. Moreover, the cellular efficacy/toxicity window in series [5] is reported as 1901-fold.
For `Cc1ccc(N(CCCCCC(=O)O)C2=CC(=O)c3ccccc3C2=O)c(C)c1` [iQFerr38, 6-[(2,4-dimethylphenyl)(1,4-dioxo-1,4-dihydronaphthalen-2-yl)amino]hexanoic acid], the CC50 at 18 h in [3] was 49800 nM. Moreover, in [4], the Necroptosis inhibition entry was “no”. For the same compound, the IC50 in [5] (setting [11]) is 215 nM. Also, in [5], the cellular efficacy/toxicity window is 232-fold. For the same compound, in series [6], the Apoptosis inhibition result is “no”.
In the case of `CC(=O)Nc1ccc(NC2=CC(=O)c3ccccc3C2=O)cc1` [iQFerr20, N-[4-(1,4-dioxo-1,4-dihydronaphthalen-2-yl-amino)phenyl]acetamide], the CC50 at 18 h in series [3] came out at 10200 nM. For the same compound, in series [4], the Necroptosis inhibition result is reported as “no”. Also, the IC50 in series [5] (setting [11]) was determined as 8.12 nM. The cellular efficacy/toxicity window in series [5] is given as 1254-fold. Further, the Apoptosis inhibition result in [6] was “no”.

Usually IC50 stands for the concentration that inhibits the measured activity by half.
